Test results as given in publication PMC5739799 (Oncotarget, 2017).
Like-named read-outs stand apart in the source and are kept apart here.

Key:
HCC-PDX model 61 = assay: Patient-derived HCC xenograft model 61, tumor growth; type: in vivo, BALB/c nude mice
Protocol: (§1) The PDX studies were carried out by WuXi AppTec (Shanghai, China). HCC-PDX models were originally established from surgically resected tumor tissue that was implanted in 6–8-week-old female BALB/c nude mice. Animal studies were performed according to the guidelines approved by the Institutional Animal Care and Use Committee of Wuxi AppTec, which follow the guidance of the Association for the Assessment and Accreditation of Laboratory Animal Care. Animals were routinely monitored for their health status and their body weights. Treatment was suspended and/or doses reduced at body weight losses >10%. Animals were euthanized when the tumor size exceeded 2000 mm^3. Pieces from tumor xenografts (∼30 mm^3) from passages 4–8 (ST1) were implanted subcutaneously at the right flank, and tumors were grown to an average size of about 150–200 mm^3. […] Tumor size was measured twice weekly using caliper measurements. Tumor volume (mm^3) was calculated using the formula 0.5 a × b^2, where a and b are the long and short diameters of the tumor, respectively. TGI was assessed either by calculating the ratio of the mean tumor volumes of treated and control groups or by determination of the RTV, which relates tumor volumes at any given day of treatment to the volume at the first treatment day.
(§2) In the syngenic orthotopic H129 model, differences in survival times between groups were analyzed for significance using log-rank tests. Analysis of tumor volumes of the HCC-PDX models was performed with log2-transformed values on defined days of measurement based on the assumption of their log-normal distribution. […] All respective statistical test results were derived from a common linear model that allows for individual variances in the different groups. The adjustment for multiple testing was carried out using Šidák correction at a significance level of 0.05. Back transformation of the mean difference of log2-transformed tumor volumes led to the ratios of the compared groups, whereby ratios of 1 reflect no difference in tumor volumes and ratios below or above 1 reflect smaller or larger tumor volumes, respectively, of the respective second group. The analyses of RTV were carried out in a similar fashion without the log2 transformation of values. Bead-based western data were analyzed (described in [15]) using the MEV 4.8.1 software package. A p-value <0.05 was regarded as significant. All statistical analyses were performed with SAS® 9.4 [34].

[1] = Steady-state plasma pharmacokinetics after oral dosing for 5 days; type: in vivo, BALB/c nu/nu mice
Protocol: Pharmacokinetic studies were performed in 6–8-week-old female BALB/c nu/nu mice (Charles River, Sulzfeld, Germany). […] Parent compounds and metabolites M-2 and M-5 were analyzed in plasma samples using validated bioanalytical liquid chromatography-tandem mass spectrometry (LC-MS/MS) methods according to an experimental protocol described earlier. PK parameters, namely the AUC(0–24)ss and Cmax, were calculated from plasma concentrations using a non-compartmental analysis.

HCC-PDX model 159 = assay: Patient-derived HCC xenograft model 159, tumor growth; type: in vivo, BALB/c nude mice
Protocol: as §1, §2

HCC-PDX model 20 = assay: Patient-derived HCC xenograft model 20, tumor growth; type: in vivo, BALB/c nude mice
Protocol: as §1, §2

HCC-PDX model 141 = assay: Patient-derived HCC xenograft model 141, tumor growth; type: in vivo, BALB/c nude mice
Protocol: as §1, §2

HCC-PDX model 101 = assay: Patient-derived HCC xenograft model 101, tumor growth; type: in vivo, BALB/c nude mice
Protocol: as §1, §2

HCC-PDX model 19 = assay: Patient-derived HCC xenograft model 19, tumor growth; type: in vivo, BALB/c nude mice
Protocol: as §1, §2

HCC-PDX model 217 = assay: Patient-derived HCC xenograft model 217, tumor growth; type: in vivo, BALB/c nude mice
Protocol: as §1, §2

HCC-PDX model 5 = assay: Patient-derived HCC xenograft model 5, tumor growth; type: in vivo, BALB/c nude mice
Protocol: as §1, §2

[2] = test system: 10 patient-derived HCC xenograft (HCC-PDX) models; assay: Panel of 10 HCC-PDX models, overall response and tolerability; type: in vivo, BALB/c nude mice; settings: 10 HCC-PDX models; regorafenib 10, sorafenib 30 mg/kg/day oral
Protocol: as §1
(§3) In the syngenic orthotopic H129 model, differences in survival times between groups were analyzed for significance using log-rank tests. Analysis of tumor volumes of the HCC-PDX models was performed with log2-transformed values on defined days of measurement based on the assumption of their log-normal distribution. […] All respective statistical test results were derived from a common linear model that allows for individual variances in the different groups. The adjustment for multiple testing was carried out using Šidák correction at a significance level of 0.05. […] Bead-based western data were analyzed (described in [15]) using the MEV 4.8.1 software package. […]

H129 hepatoma = assay: Syngenic orthotopic H129 hepatoma mouse model, survival; type: in vivo, C3H/HeN mice; settings: regorafenib 10 mg/kg/day oral, start 4–5 days after implantation, vehicle 27 days
Excerpt: C3H/HeN mice aged 10–12 weeks with an average weight of 25 g were used for this model and were obtained from Charles River (Sulzfeld, Germany). Experiments were initiated after an acclimatizing period of at least 8 days. Syngenic murine H129 hepatoma cells (obtained from Dr. V. Schmitz, University of Bonn, Germany) were cultivated in RPMI medium, containing 10% fetal calf serum (FCS) and 5% glutamine. Cells were harvested in a subconfluent state (70–80%), prepared for injection of 5×10^4 cells/20 μL in growth factor-free Matrigel, and transplanted in the left upper liver lobe. Animals with surgical failures were marked and excluded from the experiment. Treatment was initiated 4–5 days after transplantation. One set of mice received regorafenib 10 mg/kg once daily, vehicle solution once daily, or no treatment (n=8 per treatment group). […] Treatments were given orally via gavage. The vehicle solution contained 10% Transcutol, 10% Cremophor, and 80% 0.9% NaCl. Animals were weighed twice a week and monitored daily for behavior and wound healing. […] Due to ascites formation in the peritoneum (a symptom of the disease), body weight was not used as part of the assessment. Animals were dissected to assess the cause of death unless they had died in their cage overnight.
as §3

[3] = plasma analyte after oral regorafenib 10 mg/kg/day for 5 days
[4] = day 28, R 10 / S 30 mg/kg/day oral starting dose

CNC(=O)c1cc(Oc2ccc(NC(=O)Nc3ccc(Cl)c(C(F)(F)F)c3)c(F)c2)ccn1 [Regorafenib]
RTV Differences of least square-means, regorafenib vs sorafenib (HCC-PDX model 61; RTV analysis day R 42, S 36): -19.5
log TV Ratio, compound vs vehicle (T/C) (HCC-PDX model 61; day 25): 0.26
log TV Ratio, regorafenib vs sorafenib (HCC-PDX model 61; day 25): 0.72
Mean TV (HCC-PDX model 61; day 25, R 10 / S 30 mg/kg/day oral): 331.96 mm^3
log TV Differences of least square-means, regorafenib vs sorafenib (HCC-PDX model 61; day 25, log2-transformed TV): -0.4771
RTV (HCC-PDX model 61; end of study (RTV analysis day R 42, S 36)): 5.43
AUC(0–24)ss (percent of total) ([1]; after oral regorafenib 10 mg/kg/day for 5 days, total = molar sum of regorafenib, M-2, M-5): 90% of total
AUC(0-t) ([1]; female, BALB/c nu/nu, mouse, plasma analyte after oral regorafenib 10 mg/kg/day for 5 days, read-out: AUC(0–24)ss): 93100 ng·h/mL
Cmax ([1]; female, BALB/c nu/nu, mouse, plasma analyte after oral regorafenib 10 mg/kg/day for 5 days, read-out: Cmax): 10700 ng/mL
AUC(0–24)ss [1, 3]: 193 µmol·h/L
Cmax [1, 3]: 22.2 µmol/L
Cumulated maximum concentration (Cmax) ([1]; regorafenib 10 mg/kg once daily for 5 days, parent plus metabolites): 24.5 µmol/L
log TV Ratio, compound vs vehicle (T/C) (HCC-PDX model 159; day 28): 0.59
log TV Ratio, regorafenib vs sorafenib (HCC-PDX model 159; day 28): 0.78
Mean TV (HCC-PDX model 159; [4]): 864.43 mm^3
log TV Differences of least square-means, compound vs vehicle (HCC-PDX model 159; day 28, log2-transformed TV): -0.7546
log TV Differences of least square-means, regorafenib vs sorafenib (HCC-PDX model 159; day 28, log2-transformed TV): -0.3604
RTV Differences of least square-means, regorafenib vs sorafenib (HCC-PDX model 159; day 35): -0.6894
RTV (HCC-PDX model 159; end of study, day 35): 9.04
log TV Ratio, compound vs vehicle (T/C) (HCC-PDX model 20; day 21): 0.73
log TV Ratio, regorafenib vs sorafenib (HCC-PDX model 20; day 21): 0.93
Mean TV (HCC-PDX model 20; day 21, R 10 / S 30 mg/kg/day oral): 742.98 mm^3
log TV Differences of least square-means, compound vs vehicle (HCC-PDX model 20; day 21, log2-transformed TV): -0.4621
log TV Differences of least square-means, regorafenib vs sorafenib (HCC-PDX model 20; day 21, log2-transformed TV): -0.1048
RTV Differences of least square-means, compound vs vehicle (HCC-PDX model 20; day 42): -23.2
RTV Differences of least square-means, regorafenib vs sorafenib (HCC-PDX model 20; day 42): -11
RTV (HCC-PDX model 20; end of study, day 42): 9.46
log TV Ratio, compound vs vehicle (T/C) (HCC-PDX model 141; day 28): 0.10
log TV Ratio, regorafenib vs sorafenib (HCC-PDX model 141; day 28): 0.76
Mean TV (HCC-PDX model 141; [4]): 89.74 mm^3
log TV Differences of least square-means, regorafenib vs sorafenib (HCC-PDX model 141; day 28, log2-transformed TV): -0.3980
RTV (HCC-PDX model 141; end of study, day 42): 1.04
log TV Ratio, compound vs vehicle (T/C) (HCC-PDX model 101; day 28): 0.19
log TV Ratio, regorafenib vs sorafenib (HCC-PDX model 101; day 28): 0.41
Mean TV (HCC-PDX model 101; [4]): 177.21 mm^3
RTV (HCC-PDX model 101; end of study, day 42): 2.06
log TV Ratio, compound vs vehicle (T/C) (HCC-PDX model 19; day 28): 0.66
log TV Ratio, regorafenib vs sorafenib (HCC-PDX model 19; day 28): 1.06
Mean TV (HCC-PDX model 19; [4]): 542.38 mm^3
log TV Differences of least square-means, compound vs vehicle (HCC-PDX model 19; day 28, log2-transformed TV): -0.6083
log TV Differences of least square-means, regorafenib vs sorafenib (HCC-PDX model 19; day 28, log2-transformed TV): 0.08047
RTV Differences of least square-means, compound vs vehicle (HCC-PDX model 19; day 42): -24.1
RTV Differences of least square-means, regorafenib vs sorafenib (HCC-PDX model 19; day 42): 0.5174
RTV (HCC-PDX model 19; end of study, day 42): 5.21
RTV Differences of least square-means, regorafenib vs sorafenib (HCC-PDX model 217; RTV analysis day R 24, S 20): -14,902
log TV Ratio, compound vs vehicle (T/C) (HCC-PDX model 217; day 13): 0.45
log TV Ratio, regorafenib vs sorafenib (HCC-PDX model 217; day 13): 0.92
Mean TV (HCC-PDX model 217; day 13, R 10 / S 30 mg/kg/day oral): 932.43 mm^3
log TV Differences of least square-means, compound vs vehicle (HCC-PDX model 217; day 13, log2-transformed TV): -11,395
log TV Differences of least square-means, regorafenib vs sorafenib (HCC-PDX model 217; day 13, log2-transformed TV): -0.1276
RTV (HCC-PDX model 217; end of study (RTV analysis day R 24, S 20)): 12.77
log TV Ratio, compound vs vehicle (T/C) (HCC-PDX model 5; day 28): 0.13
log TV Ratio, regorafenib vs sorafenib (HCC-PDX model 5; day 28): 0.73
Mean TV (HCC-PDX model 5; [4]): 80.96 mm^3
log TV Differences of least square-means, compound vs vehicle (HCC-PDX model 5; day 28, log2-transformed TV): -29,518
log TV Differences of least square-means, regorafenib vs sorafenib (HCC-PDX model 5; day 28, log2-transformed TV): -0.4634
RTV Differences of least square-means, compound vs vehicle (HCC-PDX model 5; day 46): -60,049
RTV Differences of least square-means, regorafenib vs sorafenib (HCC-PDX model 5; day 46): -0.6001
RTV (HCC-PDX model 5; end of study, day 46): 1.14
Models with significant tumor growth inhibition [2]: 8/10
Median survival, days (95% CI) (H129 hepatoma): 36 (31, 38) days
Median survival, days (95% CI) (H129 hepatoma; listed as regorafenib): 36 days
